Measured values from patent publication US20250154163A1, “Pyrimidinone-Containing 17-Beta-Hydroxysteroid Dehydrogenase Type 13 Inhibitors” (ENANTA PHARMACEUTICALS, INC., priority 2023, published 2025).

Molecular target: T1, human HSD17β13 (stable HEK293T cell line overexpressing human HSD17β13) (Homo sapiens, UniProt Q7Z5P4)
T1 construct: expressed in transfected cells
T1 sequence (Q7Z5P4 20-300): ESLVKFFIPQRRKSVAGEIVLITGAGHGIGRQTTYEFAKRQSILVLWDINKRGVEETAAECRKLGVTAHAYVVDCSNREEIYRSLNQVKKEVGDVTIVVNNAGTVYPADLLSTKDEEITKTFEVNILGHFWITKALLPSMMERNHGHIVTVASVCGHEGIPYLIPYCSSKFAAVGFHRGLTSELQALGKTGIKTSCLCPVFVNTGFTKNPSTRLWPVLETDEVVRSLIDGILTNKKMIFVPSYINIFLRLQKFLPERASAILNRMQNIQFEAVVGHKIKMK
Assay: HSD17β13 inhibitor cell-based screening assay (conversion of estradiol-d2 to estrone-d2 by RF-MS)
Conditions: conversion of estradiol-d2 to estrone-d2 after 24 hours
Protocol: The purpose of this cell-based assay is to determine the cellular efficacy (IC50) of HSD17β13 inhibitors in a stable HEK293 T cell line overexpressing human HSD17β13. The assay measures by Rapid Fire mass-spectrometry (RF-MS) the conversion of estradiol-d2 to estrone-d2. Cytotoxicity was also assessed via luminescent signal generated by the ATPlite viability assay reagent. To screen compounds for HSD17013 inhibition, black 384-well plates were seeded with 1000× concentration of compounds in a 9-point 1:3 dilution curve (final top concentration of 10 μM) as well as 1000× concentration of 17β-estradiol-d2 (5 μM final concentration) added to all wells. HEK293T cells stably overexpressing human HSD17013 and the parent HEK293T cell lines were then seeded in the plates on top of the compounds and substrate in MEM media containing 1% charcoal/dextran-treated FBS. Supernatant is collected and immediately frozen after 24 hours of incubation, and conversion of estradiol-d2 to estrone-d2 is measured at Pure Honey by RF-MS. The remaining media in the plate was removed from the wells and replaced with ATPlite viability assay reagent. Luminescent signal from the ATPlite reagent was measured on the Envision plate reader. 10 μL of 10 mM compounds stocks (1000×) dissolved in DMSO were pipetted into the appropriate wells on the 384 LDV plate (Labcyte; cat. no.: LP-0200) and the appropriate volumes of DMSO solvent were included onto an intermediate plate to further dilute the compound stocks to complete the 9-pt dose curve (final top concentration of 10 μM). 10 μL per well of 5 mM estradiol-d2 (1000×) (Cayman; item no.: 9002846) (5 μM final concentration) dissolved in DMSO was seeded into the appropriate number of wells on the same source plate as the compounds. The Echo 650 (Labcyte) was used for compound dilutions and dispensing both the compounds and the substrate onto a dry 384-well black assay plate (Falcon/Corning; cat. no.:353962). Afterwards, cells were immediately counted and seeded onto the plate. Cells were cultured for expansion in EMEM (ATCC; cat. no.: 30-2003)+10% FBS (Hyclone; cat. no.: SH3007003)+1×PenStrep (Gibco; cat. no.: 15140-122). All media for stable cell line overexpressing HSD17013 also included […] zeocin (Invitrogen; cat. no.: 46-0509) for selection. To prepare cells for seeding into the 384-well assay plate, cells were trypsinized for 3 minutes in the incubator. The Trypsin-EDTA (0.25%) (Gibco; cat. no.: 25200056) was neutralized with EMEM complete culture medium warmed to 37° C. Cells were then centrifugated at 300×g for 5 minutes at room temperature. The cell pellet was resuspended in phenol red-free MEM (Gibco; cat. no.: 51200-038)+1% charcoal/dextran-treated FBS (Hyclone; cat. no.: SH3006803) and 1×PenStrep warmed to 37° C. Cells were then counted using the TC20 automated cell-counter (Bio-Rad) and disposable duel chamber counting slides (Bio-Rad; cat. no.: 1450016) for a cell density of 1.5E5 cells/mL to then seed into the assay plate at 7.5E3 cells/well with 50 μL of media per well. Prior to the 24-hour time point, a solution of 1% formic acid (10×) (Honeywell; cat. no.: 94318) in MEM phenol red-free MEM+1% charcoal/dextran-treated FBS and 1×PenStrep was made. ATPlite luminescent ATP detection reagent (PerkinElmer; cat. no.: 6016739) was prepared according to the manufacturer's instructions. A new 384-well Falcon plate (collection plate) was seeded with 2 μL per well of 10× formic acid and then 18 μL of cell supernatant was added onto the formic acid, resulting in a 20 μL per well solution of 0.1% formic acid (1×) in supernatant. The plate of collected supernatant was immediately frozen on dry ice before being stored at −80° C. The collection plate was shipped to Momentum Biotechnologies for analysis. The remaining supernatant in the assay plate was discarded and 25 μL of ATPlite reagent was added to each well. […]

Compound	IC50 [nM]
COc1ccc(-c2nc3sc4c(O)c(Cl)ccc4c3c(=O)n2Cc2ccno2)c(C2CC2)c1 [Example 47, 7-chloro-2-(2-cyclopropyl-4-methoxyphenyl)-8-hydroxy-3-(isoxazol-5-ylmethyl)benzo[4,5]thieno[2,3-d]pyrimidin-4(3H)-one]	< 100
O=c1c2c(nc(-c3ncc(C(F)(F)F)cc3C3CC3)n1Cc1ccc(C(F)(F)F)nc1)sc1c(O)c(Cl)ccc12 [Example 100]	< 100
COc1ccc(-c2nc3sc4c(O)c(Cl)ccc4c3c(=O)n2C[C@@H]2CC(=O)N(C)C2)c(C2CC2)c1 [Example 88]	< 100
O=c1c2c(nc(-c3cnc(C(F)(F)F)cc3C3CC3)n1Cc1cc(C(F)(F)F)no1)sc1c(O)c(Cl)ccc12 [Example 173]	< 100
Cn1cc2cc(C3CC3)c(-c3nc4sc5c(O)c(Cl)ccc5c4c(=O)n3Cc3cnco3)cc2n1 [Example 195]	< 100
COc1ccc(C2=Nc3sc4c(O)c(Cl)ccc4c3C(=O)C2Cc2cc[nH]c(=O)c2)c(C2CC2)c1 (centres unmarked) [Example 157]	100 to 500
COc1cc(C2CC2)c(-c2nc3sc4c(O)c(Cl)ccc4c3c(=O)n2Cc2cnco2)cc1C [Example 108]	< 100
CS(=O)(=O)c1cnc(-c2nc3sc4c(O)c(Cl)ccc4c3c(=O)n2Cc2cc(C(F)(F)F)no2)c(C2CC2)c1 [Example 112, 7-chloro-2-(3-cyclopropyl-5-(methylsulfonyl)pyridin-2-yl)-8-hydroxy-3-((3-(trifluoromethyl)isoxazol-5-yl)methyl)benzo[4,5]thieno[2,3-d]pyrimidin-4(3H)-one]	< 100
O=c1c2c(nc(-c3cnc(C(F)(F)F)cc3C3CC3)n1Cc1ccc(C(F)(F)F)nc1)sc1c(O)c(Cl)ccc12 [Example 179]	< 100
O=c1c2c(nc(-c3cc(F)c(F)cc3C3CC3)n1Cc1cn[nH]n1)sc1c(O)c(Cl)ccc12 [Example 214]	< 100
COc1ccc(-c2nc3sc4c(O)c(Cl)ccc4c3c(=O)n2Cc2ccc(OC)nc2)c(C2CC2)c1 [Example 160]	< 100
COc1ccc(-c2nc3sc4c(O)c(Cl)ccc4c3c(=O)n2Cc2ccnc(C(F)(F)F)c2)c(C2CC2)c1 [Example 155]	< 100
COc1ccc(-c2nc3sc4c(O)c(C=O)ccc4c3c(=O)n2Cc2cnco2)c(C2CC2)c1 [Example 31, 2-(2-cyclopropyl-4-methoxyphenyl)-8-hydroxy-3-(oxazol-5-ylmethyl)-4-oxo-3,4-dihydrobenzo[4,5]thieno[2,3-d]pyrimidine-7-carbaldehyde]	1000 to 100000
COc1ccc(-c2nc3sc4c(O)c(Cl)ccc4c3c(=O)n2Cc2cnc(C(C)C)s2)c(C2CC2)c1 [Example 196]	< 100
Cn1ccc(Cn2c(-c3cc(F)c(F)cc3C3CC3)nc3sc4c(O)c(Cl)ccc4c3c2=O)cc1=O [Example 167]	< 100
COc1cc(-c2nc3sc4c(O)c(Cl)ccc4c3c(=O)n2Cc2cnco2)c(C2CC2)cc1OC [Example 118]	100 to 500
CS(=O)(=O)c1ccc(-c2nc3sc4c(O)c(Cl)ccc4c3c(=O)n2Cc2cccnc2)c(C2CC2)c1 [Example 166]	< 100
Cn1cc(Cn2c(-c3cc(F)c(F)cc3C3CC3)nc3sc4c(O)c(Cl)ccc4c3c2=O)cn1 [Example 216]	< 100

Compound	IC50 [nM]
COc1ccc(-c2nc3sc4c(S(=O)(=O)O)cccc4c3c(=O)n2Cc2cnco2)c(C2CC2)c1 [Example 12, 2-(2-cyclopropyl-4-methoxyphenyl)-3-(oxazol-5-ylmethyl)-4-oxo-3,4-dihydrobenzo[4,5]thieno[2,3-d]pyrimidine-8-sulfonic acid]	1000 to 100000
COc1ccc(-c2nc3sc4c(O)c(Cl)ccc4c3c(=O)n2Cc2cnc(C)nc2)c(C2CC2)c1 [Example 58, 7-chloro-2-(2-cyclopropyl-4-methoxyphenyl)-8-hydroxy-3-((2-methylpyrimidin-5-yl)methyl)benzo[4,5]thieno[2,3-d]pyrimidin-4(3H)-one]	< 100
O=c1c2c(nc(-c3cc(F)c(F)cc3C3CC3)n1Cc1cnccn1)sc1c(O)c(Cl)ccc12 [Example 207]	< 100
O=c1c2c(nc(-c3cc(F)c(F)cc3C3CC3)n1Cc1cc(C(F)(F)F)no1)sc1c(O)c(Cl)cc(F)c12 [Example 219, 7-chloro-2-(2-cyclopropyl-4,5-difluorophenyl)-5-fluoro-8-hydroxy-3-((3-(trifluoromethyl)isoxazol-5-yl)methyl)benzo[4,5]thieno[2,3-d]pyrimidin-4(3H)-one]	< 100
N#Cc1ccc(Cn2c(-c3cc(F)c(F)cc3C3CC3)nc3sc4c(O)c(Cl)ccc4c3c2=O)cn1 [Example 172]	< 100
O=c1c2c(nc(-c3ncc(Cl)cc3C3CC3)n1Cc1cc(C(F)(F)F)no1)sc1c(O)c(Cl)ccc12 [Example 103]	< 100
COc1ccc(-c2nc3sc4c(ccc5oc(=O)[nH]c54)c3c(=O)n2Cc2cnco2)c(C2CC2)c1 [Example 38, 8-(2-cyclopropyl-4-methoxyphenyl)-7-(oxazol-5-ylmethyl)oxazolo[4″,5″:3′,4′]benzo[1′,2′:4,5]thieno[2,3-d]pyrimidine-2,6(1H,7H)-dione]	1000 to 100000
O=c1c2c(nc(-c3ccc4cc[nH]c4c3C3CC3)n1Cc1cnco1)sc1c(O)c(Cl)ccc12 [Example 140]	< 100
O=c1c2c(nc(-c3cc(F)c(F)cc3C3CC3)n1Cc1ccno1)sc1c(O)c(Cl)ccc12 [Example 62, 7-chloro-2-(2-cyclopropyl-4,5-difluorophenyl)-8-hydroxy-3-(isoxazol-5-ylmethyl)benzo[4,5]thieno[2,3-d]pyrimidin-4(3H)-one]	< 100
COc1cccc(-c2nc3sc4c(O)c(Cl)ccc4c3c(=O)n2Cc2cnco2)c1C1CC1 [Example 146]	< 100
Cn1ncc2cc(-c3nc4sc5c(O)c(Cl)ccc5c4c(=O)n3Cc3cc(C(F)(F)F)no3)c(C3CC3)cc21 [Example 164]	< 100
COc1ccc(-c2nc3sc4c(O)c(Cl)ccc4c3c(=O)n2Cc2cnco2)c(C)c1 [Example 124]	100 to 500
C#CCn1c(-c2ccc(OC)cc2C2CC2)nc2sc3c(O)c(Cl)ccc3c2c1=O [Example 126]	100 to 500
O=c1c2c(nc(-c3sc4ccccc4c3C3CC3)n1Cc1cnco1)sc1c(O)c(Cl)ccc12 [Example 158]	< 100
COc1ccc(-c2nc3sc4c(O)c(F)cc(F)c4c3c(=O)n2Cc2cnco2)c(C2CC2)c1 [Example 223, 2-(2-cyclopropyl-4-methoxyphenyl)-5,7-difluoro-8-hydroxy-3-(oxazol-5-ylmethyl)benzo[4,5]thieno[2,3-d]pyrimidin-4(3H)-one]	< 100
O=c1c2c(nc(-c3cc(F)c(F)cc3C3CC3)n1Cc1nncs1)sc1c(O)c(Cl)ccc12 [Example 209]	< 100
COc1ccc(-c2nc3sc4c(Br)c(O)ccc4c3c(=O)n2Cc2cnco2)c(C2CC2)c1 [Example 37, 8-bromo-2-(2-cyclopropyl-4-methoxyphenyl)-7-hydroxy-3-(oxazol-5-ylmethyl)benzo[4,5]thieno[2,3-d]pyrimidin-4(3H)-one]	1000 to 100000
